Assay results taken from patent US11078202B2, “β-lactamase inhibitor and use thereof” (priority 2018, dated 2021).
Where a name gives a salt, the structure may show the parent alone.

What was measured:
Type in all cases: cell-based
[1] = test system: Acinetobacter baumannii XNWB 0007; assay: MIC assay of test compounds combined with ceftazidime (8 μg/mL); conditions: ceftazidime 8 μg/mL fixed
In short: (§1)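 Here, growth inhibition was scored visually following CLSI guidelines once plates containing compound, fixed-dose β-lactam and diluted inoculum had stood 16-20 h at 35±2 °C. Cells were taken from TSA colonies, brought to OD600 0.1-0.15 in 0.9% NaCl, then diluted 300-fold in 1.1×CAMHB.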

[2] = test system: Klebsiella pneumoniae XNWB 0001; assay: as above; conditions: ceftazidime 8 μg/mL fixed
In short: as §1

[3] = test system: Klebsiella pneumoniae XNWB 0002; assay: as above; conditions: ceftazidime 8 μg/mL fixed
In short: as §1

[4] = test system: Klebsiella pneumoniae XNWB 0003; assay: as above; conditions: ceftazidime 8 μg/mL fixed
In short: as §1

[5] = test system: Klebsiella pneumoniae XNWB 0004; assay: as above; conditions: ceftazidime 8 μg/mL fixed
In short: as §1

[6] = test system: Klebsiella pneumoniae XNWB 0005; assay: as above; conditions: ceftazidime 8 μg/mL fixed
In short: as §1

[7] = test system: Klebsiella pneumoniae XNWB 0006; assay: as above; conditions: ceftazidime 8 μg/mL fixed
In short: as §1

[8] = test system: Pseudomonas aeruginosa XNWB 0008; assay: as above; conditions: ceftazidime 8 μg/mL fixed
In short: as §1

[9] = test system: Acinetobacter baumannii XNWB 0007; assay: MIC assay of test compounds combined with imipenem (4 μg/mL); conditions: imipenem 4 μg/mL fixed
In short: as §1

[10] = test system: Klebsiella pneumoniae XNWB 0001; assay: as above; conditions: imipenem 4 μg/mL fixed
In short: as §1

[11] = test system: Klebsiella pneumoniae XNWB 0002; assay: as above; conditions: imipenem 4 μg/mL fixed
In short: as §1

[12] = test system: Klebsiella pneumoniae XNWB 0003; assay: as above; conditions: imipenem 4 μg/mL fixed
In short: as §1

[13] = test system: Klebsiella pneumoniae XNWB 0004; assay: as above; conditions: imipenem 4 μg/mL fixed
In short: as §1

[14] = test system: Klebsiella pneumoniae XNWB 0005; assay: as above; conditions: imipenem 4 μg/mL fixed
In short: as §1

[15] = test system: Klebsiella pneumoniae XNWB 0006; assay: as above; conditions: imipenem 4 μg/mL fixed
In short: as §1

[16] = test system: Pseudomonas aeruginosa XNWB 0008; assay: as above; conditions: imipenem 4 μg/mL fixed
In short: as §1

[17] = test system: Enterobacter aerogenes XNWB 0011; assay: MIC assay of test compounds combined with ampicillin (8 μg/mL); conditions: ampicillin 8 μg/mL fixed
Method: (§2) The bacterial strains used for the minimum inhibitory concentration (MIC) test were frozen in a −80° C. ULT freezer and thawed 2 days before use. A small amount of frozen bacterial strains were scraped using a sterile inoculating loop, streaked onto a TSA solid culture dish for inoculation, and then cultured for 20-24 h at 35±2° C. in a normal atmospheric environment.
(§3) 5-10 colonies with similar morphology were picked from the culture dish using a sterile inoculating loop and then re-streaked onto a suitable solid culture dish. Then the dish was placed into a normal incubator for culture for 20-24 h at 35±2° C.
(§4) 5-10 single bacterial colonies were picked from the solid culture dish, resuspended in 500 μL of 0.9% NaCl, and adjusted to an OD600 of 0.1-0.15 with a spectrophotometer.
(§5) The bacteria were then diluted 300-fold with 1.1×CAMHB.
(§6) Test compounds of columns A-H: having a highest final test concentration of 64 μg/mL or 32 μg/mL, 2-fold diluted.
(§7) Dilution of test compounds: All test compounds were dissolved and diluted in dimethylsulfoxide (DMSO). 170 μL of 3.2 mg/mL (50*64 μg/mL) compound was transferred to wells (A1-H1) of column 1 of a dilution master plate and then 85 μL of DMSO was transferred to wells of other columns. Each compound was diluted 2-fold in sequence (i.e., 85 μL of compound was pipetted from column 1 into column 2 and mixed uniformly, 85 μL of compound was pipetted from column 2 into column 3 and mixed uniformly, then 85 μL of compound was pipetted from column 3 into column 4 and mixed uniformly, and so on until the dilution was done in column 11).
(§8) Preparation of an additive of ampicillin: Ampicillin was dissolved in ddH2O. 30 μL of 100 μg/mL (12.5×8 μg/mL) ampicillin was transferred to columns 1-11 of an additive plate, followed by the addition of 30 μL of ddH2O to column 12.
(§9) 2 μL of each compound in the dilution master plate of the test compounds was transferred to the corresponding well of the assay plates. In the mean time, 2 μL of 100% DMSO was transferred to the compound-free wells (GC and SC wells). (1) 8 μL of imipenem in the additive plate of imipenem was transferred to the corresponding wells of the assay plates; (2) 8 μL of ceftazidime in the additive plate of ceftazidime was transferred to the corresponding wells of the assay plates; (3) 8 μL of ampicillin in the additive plate of ampicillin was transferred to the corresponding wells of the assay plates.
(§10) 90 μL of corresponding bacterial inocula were added to wells (except for SC wells) of the assay plates.
(§11) After addition, the 6 assay plates were covered by sterile covers. The mixtures in the assay plates were centrifuged by a centrifuge at 1000 rpm for 30 s, and mixed uniformly by oscillating with a microplate oscillator at 800 rpm for 1 min, and then cultured in a common incubator for 16-20 h at 35±2° C.
(§12) The minimum inhibitory concentration of each compound was recorded by reference to guidelines from the Clinical and Laboratory Standards Institute.
(§13) The minimum inhibitory concentrations of the compounds of the present invention and antibiotics (imipenem, ceftazidime, and ampicillin) against 11 strains of bacteria were tested in this study by reference to the medium microdilution method as indicated by the Clinical and Laboratory Standards Institute. The effect of the test compounds in combination with imipenem, ceftazidime, and ampicillin was also tested. Compounds were diluted two-fold in 96-well plates from the highest detection concentration of 64 μg/mL. The test compounds were tested in combination with a fixed concentration of imipenem (4 μg/mL), ceftazidime (8 μg/mL), and ampicillin (8 μg/mL). The bacterial inocula in the assay plates were resuscitated from TSA and diluted in CAMHB, while growth controls (GC wells) and sterile controls (SC wells) were set up in the assay plates. […]

[18] = test system: Escherichia coli XNWB 0009; assay: as above; conditions: ampicillin 8 μg/mL fixed
Method: as §2, §3, §4, §5, §6, §7, §8, §9, §10, §11, §12, §13

[19] = test system: Escherichia coli XNWB 0010; assay: as above; conditions: ampicillin 8 μg/mL fixed
Method: as §2, §3, §4, §5, §6, §7, §8, §9, §10, §11, §12, §13

| SMILES | The minimum concentration of test compounds combined with ceftazidime (8 μg/mL) for bacteriostasis [1] | The minimum concentration of test compounds combined with ceftazidime (8 μg/mL) for bacteriostasis [2] | The minimum concentration of test compounds combined with ceftazidime (8 μg/mL) for bacteriostasis [3] | The minimum concentration of test compounds combined with ceftazidime (8 μg/mL) for bacteriostasis [4] | The minimum concentration of test compounds combined with ceftazidime (8 μg/mL) for bacteriostasis [5] | The minimum concentration of test compounds combined with ceftazidime (8 μg/mL) for bacteriostasis [6] | The minimum concentration of test compounds combined with ceftazidime (8 μg/mL) for bacteriostasis [7] | The minimum concentration of test compounds combined with ceftazidime (8 μg/mL) for bacteriostasis [8] | The minimum concentration of test compounds combined with imipenem (4 μg/mL) for bacteriostasis [9] | The minimum concentration of test compounds combined with imipenem (4 μg/mL) for bacteriostasis [10] | The minimum concentration of test compounds combined with imipenem (4 μg/mL) for bacteriostasis [11] | The minimum concentration of test compounds combined with imipenem (4 μg/mL) for bacteriostasis [12] | The minimum concentration of test compounds combined with imipenem (4 μg/mL) for bacteriostasis [13] | The minimum concentration of test compounds combined with imipenem (4 μg/mL) for bacteriostasis [14] | The minimum concentration of test compounds combined with imipenem (4 μg/mL) for bacteriostasis [15] | The minimum concentration of test compounds combined with imipenem (4 μg/mL) for bacteriostasis [16] | The minimum concentration of test compounds combined with ampicillin (8 μg/mL) for bacteriostasis [17] | The minimum concentration of test compounds combined with ampicillin (8 μg/mL) for bacteriostasis [18] | The minimum concentration of test compounds combined with ampicillin (8 μg/mL) for bacteriostasis [19] |
| --- | --- | --- | --- | --- | --- | --- | --- | --- | --- | --- | --- | --- | --- | --- | --- | --- | --- | --- | --- |
| NCc1nnc([C@@H]2CC3(CC3)[C@@H]3CN2C(=O)N3OS(=O)(=O)O)o1 [Example 2, (1R,4S)-4-(5-(aminomethyl)-1,3,4-oxadiazol-2-yl)-6-oxo-5,7-diazaspiro[bicycle [3.2.1]octane-2,1′-cyclopropan]-7-yl sulfate] | C (C: 16-128 μg/mL) | A (A: <8 μg/mL) | A (A: <8 μg/mL) | A (A: <8 μg/mL) | B (B: 8-16 μg/mL) | A (A: <8 μg/mL) | A (A: <8 μg/mL) | C (C: 16-128 μg/mL) | C (C: 16-128 μg/mL) | A (A: <8 μg/mL) | A (A: <8 μg/mL) | A (A: <8 μg/mL) | A (A: <8 μg/mL) | A (A: <8 μg/mL) | A (A: <8 μg/mL) | C (C: 16-128 μg/mL) | A (A: <8 μg/mL) | A (A: <8 μg/mL) | A (A: <8 μg/mL) |
| NCCc1cc([C@@H]2CC3(CC3)[C@@H]3CN2C(=O)N3OS(=O)(=O)O)no1 [Example 41, (1R,4S)-4-(5-(2-aminoethyl)isoxazol-3-yl)-6-oxo-5,7-diazaspiro[bicyclo[3.2.1]octane-2,1′-cyclopropan]-7-yl sulfate] | C (C: 16-128 μg/mL) | A (A: <8 μg/mL) | A (A: <8 μg/mL) | A (A: <8 μg/mL) | B (B: 8-16 μg/mL) | A (A: <8 μg/mL) | A (A: <8 μg/mL) | C (C: 16-128 μg/mL) | C (C: 16-128 μg/mL) | A (A: <8 μg/mL) | A (A: <8 μg/mL) | A (A: <8 μg/mL) | A (A: <8 μg/mL) | A (A: <8 μg/mL) | A (A: <8 μg/mL) | A (A: <8 μg/mL) | B (B: 8-16 μg/mL) | A (A: <8 μg/mL) | A (A: <8 μg/mL) |
| N=C(N)NCc1nnc([C@@H]2CC3(CC3)[C@@H]3CN2C(=O)N3OS(=O)(=O)O)o1 [Example 3, (1R,4S)-4-(5-(guanidinomethyl)-1,3,4-oxadiazol-2-yl)-6-oxo-5,7-diazaspiro[bicycle [3.2.1]octane-2,1′-cyclopropan]-7-yl sulfate] | C (C: 16-128 μg/mL) | B (B: 8-16 μg/mL) | A (A: <8 μg/mL) | B (B: 8-16 μg/mL) | B (B: 8-16 μg/mL) | B (B: 8-16 μg/mL) | A (A: <8 μg/mL) | C (C: 16-128 μg/mL) | C (C: 16-128 μg/mL) | B (B: 8-16 μg/mL) | A (A: <8 μg/mL) | A (A: <8 μg/mL) | A (A: <8 μg/mL) | A (A: <8 μg/mL) | A (A: <8 μg/mL) | C (C: 16-128 μg/mL) | C (C: 16-128 μg/mL) | A (A: <8 μg/mL) | B (B: 8-16 μg/mL) |
